The values that follow come from ChEMBL document CHEMBL1156259, “Synthesis and biological evaluation of amidine, guanidine, and thiourea derivatives of 2-amino(6-trifluoromethoxy)benzothiazole as neuroprotective agents potentially useful in brain diseases” (J Med Chem, 2010).

The source made the active and inactive calls. No cut-off for these calls is given here.

As a reminder, the inhibition is the drop in the measured response relative to a control, in per cent. In general, IC50 refers to the point on the concentration scale where inhibition reaches its midpoint.

Assay [1] deals with Cortex. As to the kind of experiment: Neuroprotective activity in Sprague-Dawley rat brain cortex slices assessed as interval of drug concentration causing reduction of oxygen/glucose deprivation-induced glutamate release. In kind it is functional.
The test system of assay [2] is Cortex. Description: Neuroprotective activity in Sprague-Dawley rat brain cortex slices assessed as drug concentration causing maximum reduction of oxygen/glucose deprivation-induced glutamate release. The following applies: read-out: MEC. In kind it is functional.
The test system of assay [3] is Cortex. Description: Neuroprotective activity in Sprague-Dawley rat brain cortex slices assessed as reduction of oxygen/glucose deprivation-induced glutamate release at minimal effective concentration. In kind it is functional. Further details: scale not given: the % may be the effect or the level left.
Assay [4] concerns Cortex. As to the kind of experiment: Neuroprotective activity in Sprague-Dawley rat brain cortex slices assessed as interval of drug concentration causing reduction of oxygen/glucose deprivation-induced LDH release. In kind it is functional. On the technique in general: LDH in the medium is a marker of cell lysis.
Assay [5] has as its system Cortex. As to the kind of experiment: Neuroprotective activity in Sprague-Dawley rat brain cortex slices assessed as drug concentration causing maximum reduction of oxygen/glucose deprivation-induced LDH release. The following applies: read-out: MEC. The class given is functional.
For assay [6], the system named is Cortex. As to the kind of experiment: Neuroprotective activity in Sprague-Dawley rat brain cortex slices assessed as reduction of oxygen/glucose deprivation-induced LDH release at minimal effective concentration. The class given is functional. Details: scale not given: the % may be the effect or the level left.
The nature of assay [7]: Antioxidant activity assessed as ABTS+ radical scavenging activity by spectrophotometry relative to 1 mM Trolox. In kind it is functional.
Assay [8] is filed under the species Rattus norvegicus. The following applies: Wistar, Piriform cortex, at 50 µM.
Description: Inhibition of voltage-dependent Na(+) channel in Wistar rat brain piriform cortex layer 2 assessed as inhibition of transient Na+ current amplitude at 50 uM under holding potential of -80 mV by whole cell patch clamp assay
The nature of assay [9]: cells. The following applies: Rattus norvegicus, Wistar, Piriform cortex. In kind it is tissue-based.
Description: Inhibition of voltage-dependent Ca(+) channel in Wistar rat brain piriform cortex acutely dissociated neurons assessed as inhibition of high voltage activated Ba+ current amplitude at under holding potential of -60 mV by whole cell patch clamp assay
The species named for assay [10] is Rattus norvegicus. The following applies: Wistar, Piriform cortex, at 60 µM.
Description: Inhibition of voltage-dependent Ca(+) channel in Wistar rat brain piriform cortex acutely dissociated neurons assessed as effect on half activation potential of high voltage activated Ba+ current at 60 uM by whole cell patch clamp assay
For assay [11], the species on record is Rattus norvegicus. The following applies: Wistar, Piriform cortex, at 60 µM. The source holds these as a separate data set.
Description: Inhibition of voltage-dependent Ca(+) channel in Wistar rat brain piriform cortex acutely dissociated neurons assessed as effect on high voltage activated Ba+ current activation speed at 60 uM by whole cell patch clamp assay
Assay [12] is filed under the species Rattus norvegicus. The following applies: Wistar, Piriform cortex, at 60 µM. This is another data set of the same source.
Description: Inhibition of voltage-dependent Ca(+) channel in Wistar rat brain piriform cortex acutely dissociated neurons assessed as effect on high voltage activated Ba+ current deactivation at 60 uM by whole cell patch clamp assay
The target of assay [13] is Nitric oxide synthase 1 (Rattus norvegicus) (UniProt P29476). As to the kind of experiment: Inhibition of nNOS in Sprague-Dawley rat brain assessed as nitric oxide-mediated conversion of oxyhemoglobin to methemoglobin.
Nitric oxide synthase 1 (Rattus norvegicus), sequence (P29476 whole entry): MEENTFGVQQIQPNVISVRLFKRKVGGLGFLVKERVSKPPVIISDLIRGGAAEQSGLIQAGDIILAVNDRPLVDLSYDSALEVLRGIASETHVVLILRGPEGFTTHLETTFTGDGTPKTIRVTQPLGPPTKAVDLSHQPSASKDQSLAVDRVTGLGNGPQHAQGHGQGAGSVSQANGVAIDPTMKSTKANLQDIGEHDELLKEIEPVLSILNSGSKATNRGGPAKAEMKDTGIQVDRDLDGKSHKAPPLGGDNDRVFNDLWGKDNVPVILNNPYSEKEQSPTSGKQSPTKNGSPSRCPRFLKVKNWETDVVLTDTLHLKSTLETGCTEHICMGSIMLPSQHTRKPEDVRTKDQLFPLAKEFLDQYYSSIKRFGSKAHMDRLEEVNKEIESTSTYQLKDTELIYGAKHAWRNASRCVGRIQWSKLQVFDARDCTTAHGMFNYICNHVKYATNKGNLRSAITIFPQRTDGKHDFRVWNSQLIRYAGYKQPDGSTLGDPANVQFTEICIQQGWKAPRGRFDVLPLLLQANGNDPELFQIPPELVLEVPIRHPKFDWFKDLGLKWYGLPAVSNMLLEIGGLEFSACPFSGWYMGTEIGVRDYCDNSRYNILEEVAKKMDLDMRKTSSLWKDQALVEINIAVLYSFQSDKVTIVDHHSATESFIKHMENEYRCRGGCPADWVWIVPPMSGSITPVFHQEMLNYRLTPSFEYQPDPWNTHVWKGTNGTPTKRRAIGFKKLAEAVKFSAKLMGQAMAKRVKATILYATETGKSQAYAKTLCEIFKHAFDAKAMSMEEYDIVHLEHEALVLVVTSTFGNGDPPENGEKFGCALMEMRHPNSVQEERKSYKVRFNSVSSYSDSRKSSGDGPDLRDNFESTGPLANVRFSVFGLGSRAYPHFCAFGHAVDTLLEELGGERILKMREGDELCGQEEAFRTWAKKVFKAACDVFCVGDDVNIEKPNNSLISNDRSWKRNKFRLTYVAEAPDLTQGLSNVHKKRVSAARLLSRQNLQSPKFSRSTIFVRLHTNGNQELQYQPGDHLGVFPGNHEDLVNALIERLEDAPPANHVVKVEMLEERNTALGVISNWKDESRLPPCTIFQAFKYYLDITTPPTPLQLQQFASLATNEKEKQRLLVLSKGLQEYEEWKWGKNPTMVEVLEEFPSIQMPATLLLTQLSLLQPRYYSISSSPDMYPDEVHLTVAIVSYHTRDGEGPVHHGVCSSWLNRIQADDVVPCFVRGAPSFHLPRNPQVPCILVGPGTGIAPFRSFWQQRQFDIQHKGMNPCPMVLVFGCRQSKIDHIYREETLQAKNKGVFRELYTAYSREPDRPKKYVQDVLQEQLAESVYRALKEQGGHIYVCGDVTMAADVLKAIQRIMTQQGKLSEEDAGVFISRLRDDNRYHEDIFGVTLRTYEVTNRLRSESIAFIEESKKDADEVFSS

As for `CCCNC(=S)Nc1nc2ccc(OC(F)(F)F)cc2s1`, the Activity amounted to 0.01 µM in [1], 94.2% in assay [3], 0.01 µM in [4] and 60.9% in [6]. The minimal effective concentration in assay [2] and in assay [5] was 0.01 µM in each case. In assay [7], the Ratio turned out to be 0.5. Besides, the inhibition in [8] was found to be 15%.

Consider `Nc1nc2ccc(OC(F)(F)F)cc2s1` [RILUZOLE], for which the Activity in assay [1] is 1 µM; in assay [3], 100%; in assay [4], 0.1 µM; in assay [6], 100%. The minimal effective concentration in assay [2] was 1 µM; in assay [5] it was 10 µM. In addition, the inhibition result in assay [7], in assay [10] and in assay [11] was “inactive” in each case. Besides, in [9], the IC50 was 34.2 µM. Also, the inhibition in assay [8] is more than 50%. The inhibition result in assay [12] is “Active”.

As for `C/C(=N\c1nc2ccc(OC(F)(F)F)cc2s1)N(C)C`, the Activity in assay [1] was found to be 0.1 µM; in assay [3], 100%; in assay [4], 0.1 µM; in [6], 56.9%. Besides, the minimal effective concentration in assay [2] and in [5] was 0.1 µM each time. Moreover, the inhibition result in assay [13] is “inactive”.

On to `CC(C)NC(=S)Nc1nc2ccc(OC(F)(F)F)cc2s1`, for which the Activity in assay [1] stood at 0.01 µM; in assay [3], 80.3%; in assay [4], 0.01 µM; in assay [6] it was 50%. For the same molecule, the minimal effective concentration in [2] was found to be 0.1 µM; in assay [5] it was 0.01 µM. Also, the Ratio in assay [7] was found to be 0.64.

Consider `O=c1c2ccccc2[se]n1-c1ccccc1`, for which the Ratio in assay [7] was 0.32.

Turning to `CCNC(=S)Nc1nc2ccc(OC(F)(F)F)cc2s1`, the Activity in [1] was 1 µM; in assay [3], 80.1%; in assay [4] it was 0.1 µM; in assay [6] it was 73.1%. Further, the minimal effective concentration turned out to be 1 µM in assay [2] and 0.1 µM in assay [5]. Moreover, the Ratio in assay [7] was determined as 0.88.

Regarding `CCCCNC(=S)Nc1nc2ccc(OC(F)(F)F)cc2s1`, the Activity in [1] amounted to 0.01 µM; in assay [3], 100%; in [4], 0.01 µM; in [6] it was 32%. Further, the minimal effective concentration in assay [2] came out at 1 µM; in assay [5], 0.01 µM. Also, in assay [7], the Ratio is 0.98. In assay [9], this molecule displayed an IC50 of 24.1 µM. In assay [8], this molecule registered an inhibition of 0%. The inhibition result in assay [10] and in assay [11] was “inactive” each time. For the same molecule, the inhibition result in assay [12] is “Active”.
